# Data taken from patent US20240285557A1, “PHARMACEUTICAL COMPOSITION COMPRISING LIPASE INHIBITOR FOR TREATMENT OR TREATMENT OF RNA VIRAL INFECTIONS” (priority 2021, published 2024).
# Entries after “also recorded” stand apart in the source; their conditions may differ.
# Tests used:
# SARS-COV-2 KCDC03 strain = test: SARS-CoV-2-infected hamsters treated with lipase inhibitor; settings: for alleviation (reduction) of pneumonia severity: 80 mg kg^−1 day^−1 intraperitoneally for 4.5 days; for pneumonia severity: 20, 40, 80 mg kg^−1 day^−1, dose-dependent; for production of free fatty acids and glycerol in lung tissue: 20 to 80 mg kg^−1 day^−1; for number of viral genes (viral genome copy number) in lung tissue / progeny viruses in lung tissue: fifth day post-infection; for weight loss: five days observation
# [1] = tested on: influenza A virus hemagglutinin (H) and M2 proteins; assay type: cell-based; settings: A549, 20 μM; vs vehicle
# [2] = MTT half-maximal cytotoxic concentration (CC50); settings: pig
# Experimental: (§1) To determine the half-maximal cytotoxic concentration (CC50) of the lipase inhibitors atglistatin and CAY10499, Vero E6, A549, HRT-18G, MA104, MARC-145, and LLC-PK cells were prepared in monolayers in 96-well plates.
# (§2) The cells were treated with the drugs for 24 hours, and the culture media was removed before addition of 200 μL of 3-(4,5-dimethylthiazol-2-yl)-2,5-diphenyl tetrazolium bromide (MTT) solution to each well. The plates were then incubated for 4 hours in a 5% CO2 incubator at 36° C. Subsequently, 150 μL of DMSO solution was added to each well and incubated at 20° C. The optical density (OD) was measured at 570 nm wavelength using an enzyme-linked immunosorbent assay (ELISA) reader.
# [3] = tested on: Species A Rotavirus (NCDV); test: microbe, parasite or virus in culture; settings: MA104, in Bos taurus, 12 h
# [4] = tested on: influenza A virus PR8 strain; assay type: cell-based
# [5] = tested on: Influenza A virus (H1N1) (PR8); test: microbe, parasite or virus in culture; settings: H1N1|PR8, A549, 12 h, drug added after 12 hours, additional 12 hours
# [6] = tested on: Porcine sapovirus (Cowden); test: microbe, parasite or virus in culture; settings: Sapporo virus, LLCPK, 18 h
# [7] = CC50 range over the cell line panel
# Experimental: as §1, §2
# [8] = MTT half-maximal cytotoxic concentration (CC50); settings: rhesus monkey
# Experimental: as §1, §2
# [9] = tested on: Bovine coronavirus (KWD20); test: microbe, parasite or virus in culture; settings: Betacoronavirus 1, 18 h
# [10] = tested on: Porcine respiratory reproductive syndrome virus (LMY); test: microbe, parasite or virus in culture; settings: Porcine reproductive and respiratory syndrome virus, MARC145, in Sus scrofa, 18 h
# [11] = tested on: Porcine epidemic diarrhea coronavirus (QIAP1401); test: organism not typed; settings: Vero C1008, 18 h
# SARS-COV-2 strain KCDC03 = assay type: cell-based
# [12] = tested on: spike (S) protein of SARS-COV-2; test: Palmitoylation assay in SARS-CoV-2-infected Vero E6 cells; assay type: cell-based; settings: Vero E6, 20 μM; vs vehicle
# Experimental: CO2 incubator. The cells were then washed with phosphate-buffered saline, and DMEM supplemented with 1 μg/ml TPCK-treated trypsin, 100 u/ml penicillin, and 100 ug/ml streptomycin was added. Afterward, the cells were incubated in a 37° C. CO2 incubator for 18 hours. […] Following an additional 18-hour incubation, the cells were washed with phosphate-buffered saline, treated with trypsin, harvested, and centrifuged. The palmitoylation assay (Badrilla, Leeds, UK) was then conducted on these cells according to the manufacturer's instructions.
# The cell pellet was washed with phosphate-buffered saline and then mixed with Buffer A containing Thiol Blocking Reagent. The mixture was incubated at 40° C. for 4 hours with continuous stirring. Subsequently, 70% acetone was added to precipitate the proteins, and the supernatant was discarded. The acetone addition process was repeated five times. The pellet was thoroughly washed, followed by elution in a binding buffer at 40° C. for 3 hours. A portion of the eluted supernatant was mixed with Laemmli Sample Buffer and used as an input control for total protein, while the remainder underwent a purification process for palmitoylated proteins.
# Initially, the total protein supernatant was mixed with CAPTUREome™ Capture Resin and Thio Cleavage Reagent, and the mixture was incubated on a rotary mixer at 20° C. for 3 hours. […]
# [13] = tested on: bovine species A rotavirus NCDV strain; test: Viral antigen expression (Western blot, immunofluorescence) in infected MA104 cells; assay type: cell-based; settings: rotavirus VP6 protein, 1, 10, 20 μM
# HRT18G cells = test: MTT half-maximal cytotoxic concentration (CC50); settings: drugs for 24 hours
# Experimental: as §1, §2
# SARS COV-2 KCDC03 strain = assay type: cell-based; settings: SARS-CoV-2 spike protein, Vero E6; 1, 10, 20 μM
# [14] = tested on: porcine sapovirus Cowden strain; test: Viral antigen expression (Western blot, immunofluorescence) in infected LLC-PK cells; assay type: cell-based; settings: porcine sapovirus VPg protein, 1, 10, 20 μM
# [15] = tested on: porcine epidemic diarrhea coronavirus QIAP1401 strain; test: Viral antigen expression (Western blot, immunofluorescence) in infected Vero E6 cells; assay type: cell-based; settings: PEDV nucleocapsid protein, 1, 10, 20 μM
# Experimental: The virus was incubated at 37° C. for 18 hours, after which the medium was changed with a medium containing DABPU-EM or DABPU-DE at a final concentration of 1 μM, […], or 20 μM. Following an additional 18 hours of incubation, the Vero E6 cells in 6-well plates were washed with phosphate-buffered saline, collected by scaping, and centrifuged. The cell pellet thus obtained was subjected to Western blot analysis. The intensity of the porcine epidemic diarrhea coronavirus nucleocapsid protein detected was assessed by comparison with the relative positive signals of the internal control beta-actin using the ImageJ software. Separately, the Vero E6 cells in 8-well chambers were washed with phosphate-buffered saline, fixed with 4% paraformaldehyde, and then subjected to immunofluorescence staining for porcine epidemic diarrhea coronavirus nucleocapsid protein in the same manner as described in the foregoing.
# [16] = tested on: bovine coronavirus KWD20 strain; assay type: cell-based; settings: bovine coronavirus spike protein, HRT-18G; 1, 10, 20 μM
# [17] = tested on: influenza A virus PR8 strain; assay type: cell-based; settings: influenza A virus M2 protein, A549; 1, 10, 20 μM
# [18] = listed as atglistatin (DABPU-DM)
# [19] = vs untreated virus-inoculated group
# Experimental for MARC cells: as §1, §2
compound,measurement,setting,value
"CN(C)C(=O)Nc1cccc(-c2ccc(N(C)C)cc2)c1 [Atglistatin, 3-(4′-(dimethylamino)-(1,1′-biphenyl)-3-yl)-1,1-dimethylurea]",alleviation (reduction) of pneumonia severity,SARS-COV-2 KCDC03 strain,73%
same,alleviation (reduction) of pneumonia severity,SARS-COV-2 KCDC03 strain; [18],70%
same,pneumonia severity,SARS-COV-2 KCDC03 strain,alleviating pneumonia severity in a dose-dependent manner
same,production of free fatty acids and glycerol in lung tissue,SARS-COV-2 KCDC03 strain,significantly reducing
same,production of free fatty acids and glycerol in lung tissue,SARS-COV-2 KCDC03 strain; [18],decreasing
same,number of viral genes (viral genome copy number) in lung tissue,SARS-COV-2 KCDC03 strain,significant decrease
same,progeny viruses in lung tissue,SARS-COV-2 KCDC03 strain,significant decrease
same,number of viral genes (viral genome copy number) in lung tissue,SARS-COV-2 KCDC03 strain; [18],significantly reduced
same,progeny viruses in lung tissue,SARS-COV-2 KCDC03 strain; [18],significantly reduced
same,weight loss,SARS-COV-2 KCDC03 strain,ceasing weight loss
same,weight loss,SARS-COV-2 KCDC03 strain; [18],blocking weight loss
same,level of viral antigens in the alveolar epithelial cells,SARS-COV-2 KCDC03 strain; [19],significant decrease
same,"lung lesions, including interstitial pneumonia, and number of virus-positive cells",SARS-COV-2 KCDC03 strain; [19],alleviating and reducing
same,number of lipid droplets in alveolar epithelial cells,SARS-COV-2 KCDC03 strain; [19],did not decrease significantly
same,palmitoylation of both hemagglutinin (H) and M2 proteins,[1],significantly decreased
same,CC50 at 24 h,[2],224 µM
same,IC50,[3],6.7 µM
same,levels of free fatty acids and glycerol in the cytoplasm,[4],significant decrease
same,number of lipid droplets,[4],did not significantly decrease
same,production of virus M2 protein,[4],significant decrease
same,progeny virus titer,[4],significant decrease
same,viral genome copy,[4],significant decrease
same,IC50,[5],0.82 µM
same,IC50,[6],3.11 µM
same,CC50 at 24 h,[7],182 to 269 µM
same,CC50 at 24 h,[8],214 µM
same,IC50,[9],1.2 µM
same,IC50,[10],2.53 µM
same,IC50,[11],1.96 µM
same,free fatty acids and glycerol in the cytoplasm,SARS-COV-2 strain KCDC03,significant decrease
same,number of lipid droplets,SARS-COV-2 strain KCDC03,did not decrease significantly
same,progeny virus count,SARS-COV-2 strain KCDC03,significant decrease
same,viral gene count,SARS-COV-2 strain KCDC03,significant decrease
same,virus spike protein synthesis,SARS-COV-2 strain KCDC03,significant decrease
same,palmitoylation of the spike (S) protein of SARS-COV-2,[12],significantly reduced
COc1nn(-c2ccc(NC(=O)OCc3ccccc3)c(C)c2)c(=O)o1 [CAY10499],palmitoylation of both hemagglutinin (H) and M2 proteins,[1],significantly decreased
same,CC50,MA104 cells,107 µM
same,CC50,MARC cells,101 µM
same,levels of free fatty acids and glycerol in the cytoplasm,[4],significant decrease
same,number of lipid droplets,[4],did not significantly decrease
same,production of virus M2 protein,[4],significant decrease
same,progeny virus titer,[4],significant decrease
same,viral genome copy,[4],significant decrease
same,CC50,MDCK cells,110 µM
same,free fatty acids and glycerol in the cytoplasm,SARS-COV-2 strain KCDC03,significant decrease
same,number of lipid droplets,SARS-COV-2 strain KCDC03,did not decrease significantly
same,progeny virus count,SARS-COV-2 strain KCDC03,significant decrease
same,viral gene count,SARS-COV-2 strain KCDC03,significant decrease
same,virus spike protein synthesis,SARS-COV-2 strain KCDC03,significant decrease
same,palmitoylation of the spike (S) protein of SARS-COV-2,[12],significantly reduced
CCN(CC)C(=O)Nc1cccc(-c2ccc(N(C)C)cc2)c1 [DABPU-DE],alleviation (reduction) of pneumonia severity,SARS-COV-2 KCDC03 strain,75%
same,pneumonia severity,SARS-COV-2 KCDC03 strain,alleviating pneumonia severity in a dose-dependent manner
same,production of free fatty acids and glycerol in lung tissue,SARS-COV-2 KCDC03 strain,decreasing; also recorded: lower levels
same,number of viral genes (viral genome copy number) in lung tissue,SARS-COV-2 KCDC03 strain,significantly reduced
same,progeny viruses in lung tissue,SARS-COV-2 KCDC03 strain,significantly reduced
same,weight loss,SARS-COV-2 KCDC03 strain,blocking weight loss
same,expression levels of the viral antigen in infected cells,[13],higher inhibitory effects of DABPU-DE than DABPU-EM
same,CC50,HRT18G cells,177 µM
same,expression levels of the viral antigen in infected cells,SARS COV-2 KCDC03 strain,higher inhibitory effects of DABPU-DE than DABPU-EM
same,expression levels of the viral antigen in infected cells,[14],higher inhibitory effects of DABPU-DE than DABPU-EM
same,expression levels of the viral antigen in infected cells,[15],higher inhibitory effects of DABPU-DE than DABPU-EM
same,expression levels of the viral antigen in infected cells,[16],higher inhibitory effects of DABPU-DE than DABPU-EM
same,expression levels of the viral antigen in infected cells,[17],higher inhibitory effects of DABPU-DE than DABPU-EM
"CCN(C)C(=O)Nc1cccc(-c2ccc(N(C)C)cc2)c1 [DABPU-EM, 3-(4′-(dimethylamino)-(1,1′-biphenyl)-3-yl)-1-ethyl-1-methylurea]",expression levels of the viral antigen in infected cells,[13],inhibitory activity
same,CC50 at 24 h,[2],231 µM
same,IC50,[3],7.08 µM
same,IC50,[5],1.63 µM
same,IC50,[6],3.7 µM
same,CC50 at 24 h,"[7]; human, African green monkey, dog, pig",186 to 231 µM
same,CC50 at 24 h,[8],223 µM
same,IC50,[9],3.44 µM
same,expression levels of the viral antigen in infected cells,SARS COV-2 KCDC03 strain,inhibitory activity
same,expression levels of the viral antigen in infected cells,[14],inhibitory activity
same,expression levels of the viral antigen in infected cells,[15],inhibitory activity
same,expression levels of the viral antigen in infected cells,[16],inhibitory activity
same,expression levels of the viral antigen in infected cells,[17],inhibitory activity
same,IC50,[10],2.7 µM
same,IC50,[11],1.94 µM
